# According to patent US9686984B2, “Macrocyclic picolinamides as fungicides” (DOW AGROSCIENCES LLC, priority 2014, dated 2017):
# Like-named read-outs stand apart in the source and are kept apart here.
# Tests used:
# Format in all cases: in vivo
# Leptosphaeria nodorum = experiment: Wheat Glume Blotch (LEPTNO) disease control; details: 100 ppm, 1 Day Protectant
# Protocol: Technical grades of materials were dissolved in acetone, which were then mixed with nine volumes of water containing 110 ppm Triton X-100. The fungicide solutions were applied onto wheat seedlings using an automated booth sprayer to run-off. All sprayed plants were allowed to air dry prior to further handling. All fungicides were evaluated using the aforementioned method for their activity vs. all target diseases, unless stated otherwise. Wheat leaf blotch and brown rust activity were also evaluated using track spray applications, in which case the fungicides were formulated as EC formulations, containing 0.1% Trycol 5941 in the spray solutions. Wheat plants (variety Yuma) were grown from seed in a greenhouse in 50% mineral soil/50% soil-less Metro mix until the first leaf was fully emerged, with 7-10 seedlings per pot. These plants were inoculated with an aqueous spore suspension of Septoria tritici either prior to or after fungicide treatments. After inoculation the plants were kept in 100% relative humidity (one day in a dark dew chamber followed by two to three days in a lighted dew chamber at 20° C.) to permit spores to germinate and infect the leaf. The plants were then transferred to a greenhouse set at 20° C. for disease to develop. When disease symptoms were fully expressed on the 1st leaves of untreated plants, infection levels were assessed on a scale of 0 to 100 percent disease severity. Percent disease control was calculated using the ratio of disease severity on treated plants relative to untreated plants. Example C: Evaluation of Fungicidal Activity: Wheat Glume Blotch (Leptosphaeria nodorum; Bayer code […]) Wheat plants (variety Yuma) were grown from seed in a greenhouse in 50% mineral soil/50% soil-less Metro mix until the first leaf was fully emerged, with 7-10 seedlings per pot. These plants were inoculated with an aqueous spore suspension of Leptosphaeria nodorum 24 hr after fungicide treatments. […]
# Alternaria solani = experiment: Tomato Early Blight (ALTESO) disease control; details: 100 ppm, 1 Day Protectant
# Protocol: Technical grades of materials were dissolved in acetone, which were then mixed with nine volumes of water containing 110 ppm Triton X-100. The fungicide solutions were applied onto wheat seedlings using an automated booth sprayer to run-off. All sprayed plants were allowed to air dry prior to further handling. All fungicides were evaluated using the aforementioned method for their activity vs. all target diseases, unless stated otherwise. Wheat leaf blotch and brown rust activity were also evaluated using track spray applications, in which case the fungicides were formulated as EC formulations, containing 0.1% Trycol 5941 in the spray solutions. Wheat plants (variety Yuma) were grown from seed in a greenhouse in 50% mineral soil/50% soil-less Metro mix until the first leaf was fully emerged, with 7-10 seedlings per pot. These plants were inoculated with an aqueous spore suspension of Septoria tritici either prior to or after fungicide treatments. After inoculation the plants were kept in 100% relative humidity (one day in a dark dew chamber followed by two to three days in a lighted dew chamber at 20° C.) to permit spores to germinate and infect the leaf. The plants were then transferred to a greenhouse set at 20° C. for disease to develop. When disease symptoms were fully expressed on the 1st leaves of untreated plants, infection levels were assessed on a scale of 0 to 100 percent disease severity. Percent disease control was calculated using the ratio of disease severity on treated plants relative to untreated plants. Example M: Evaluation of Fungicidal Activity: Tomato Early Blight (Alternaria solani; Bayer Code […]) Tomato plants (variety Outdoor Girl) were propagated in soil-less Metro mix, with each pot having one plant, and used when 12 to 14 days old. Test plants were inoculated with an aqueous spore suspension of Alternaria solani 24 hr after fungicide treatments. […]
# Puccinia triticina = experiment: Wheat Brown Rust (PUCCRT) disease control on wheat seedlings; details: for pest or weed control at 121.5 g/ha: Low Volume (121.5 g/H); for pest or weed control at 100 µg/mL: High Volume (100 ppm)
# How it was run: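 Yuma wheat seedlings at the first-leaf stage sprayed to run-off (acetone solution in nine volumes of water, 110 ppm Triton X-100) or track-sprayed as EC with 0.1% Trycol 5941. Inoculation with P. triticina before or after treatment, then overnight dark dew at 22° C., 100% RH, then a 24° C. greenhouse. Percent control from severity vs untreated.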
# [1] = 24 h, 1 Day Protectant, read-out: PUCCRT disease control, 1 DP
# [2] = 72 h, 3 Day Curative, read-out: PUCCRT disease control, 3 DC
Structure (SMILES),"LEPTNO disease control, 1DP (Leptosphaeria nodorum)","ALTESO disease control, 1DP (Alternaria solani)",pest or weed control at 121.5 g/ha (Puccinia triticina; [1]),pest or weed control at 121.5 g/ha (Puccinia triticina; [2]),pest or weed control at 100 µg/mL (Puccinia triticina; [1]),pest or weed control at 100 µg/mL (Puccinia triticina; [2])
COc1ccnc(C(=O)N[C@H]2CCO[C@H](Cc3ccccc3)[C@@H](Cc3ccccc3)[C@H](C)OC2=O)c1OC(C)=O [Compound 3],A (>70),B (≦70),> 70%,> 70%,–,–
CCC[C@H]1OCC[C@H](NC(=O)c2nccc(OC)c2OCOC(C)=O)C(=O)O[C@@H](C)[C@@H]1Cc1ccccc1 [Compound 17],A (>70),B (≦70),> 70%,> 70%,> 70%,> 70%
CCCC[C@H]1OCC[C@H](NC(=O)c2nccc(OC)c2OC(C)=O)C(=O)O[C@@H](C)[C@@H]1Cc1ccccc1 [Compound 2],A (>70),B (≦70),> 70%,> 70%,–,–
